{"source": "paper PMC4660977", "about": "(Molecular pharmaceutics, 2015)", "key": {"meprin β": {"molecular_target": "T1, meprin β (Homo sapiens, UniProt Q16820)", "T1 sequence (Q16820 62-701)": "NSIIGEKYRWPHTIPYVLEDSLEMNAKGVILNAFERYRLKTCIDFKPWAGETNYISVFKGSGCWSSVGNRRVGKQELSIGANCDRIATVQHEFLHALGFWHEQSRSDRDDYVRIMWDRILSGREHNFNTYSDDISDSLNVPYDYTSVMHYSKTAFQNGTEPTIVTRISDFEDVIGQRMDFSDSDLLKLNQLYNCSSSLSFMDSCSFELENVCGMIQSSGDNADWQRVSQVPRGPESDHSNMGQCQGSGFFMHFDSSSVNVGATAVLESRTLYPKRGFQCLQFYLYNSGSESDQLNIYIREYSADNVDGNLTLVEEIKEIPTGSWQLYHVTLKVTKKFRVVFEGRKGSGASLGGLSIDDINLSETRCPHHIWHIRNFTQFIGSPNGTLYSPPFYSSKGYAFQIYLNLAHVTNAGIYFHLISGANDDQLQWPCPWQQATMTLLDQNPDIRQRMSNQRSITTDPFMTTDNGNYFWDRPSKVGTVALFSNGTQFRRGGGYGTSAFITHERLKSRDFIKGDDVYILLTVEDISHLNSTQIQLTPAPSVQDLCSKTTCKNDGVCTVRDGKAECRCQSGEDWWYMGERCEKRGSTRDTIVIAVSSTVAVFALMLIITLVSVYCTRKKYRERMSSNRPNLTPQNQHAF", "assay": "Meprin β digestion, remaining function at GLP-1R", "format": "in vitro ADME", "details": "meprin β concentrations greater than 3 µg/mL; 30 min, 100 nM; AKAR3 FRET"}, "GLP-1R": {"molecular_target": "GLP-1R (Homo sapiens, UniProt P43220)", "sequence (P43220 24-463)": "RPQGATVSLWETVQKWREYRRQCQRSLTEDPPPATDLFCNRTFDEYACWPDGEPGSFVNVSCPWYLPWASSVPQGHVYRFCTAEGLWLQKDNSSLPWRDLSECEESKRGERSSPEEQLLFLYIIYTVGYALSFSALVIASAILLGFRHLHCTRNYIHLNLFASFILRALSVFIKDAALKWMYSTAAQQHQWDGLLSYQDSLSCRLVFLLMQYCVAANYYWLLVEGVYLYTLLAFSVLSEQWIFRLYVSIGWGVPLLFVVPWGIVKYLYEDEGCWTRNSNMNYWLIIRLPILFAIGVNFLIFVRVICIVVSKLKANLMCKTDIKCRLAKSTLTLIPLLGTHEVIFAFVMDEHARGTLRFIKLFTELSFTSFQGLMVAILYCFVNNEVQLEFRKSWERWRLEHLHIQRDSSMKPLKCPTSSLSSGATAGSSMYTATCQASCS", "assay": "GLP-1R agonism, AKAR3 FRET reporter assay in HEK-GLP-1R cells", "format": "cell-based", "details": "undigested"}, "[1]": {"molecular_target": "intrinsic factor (IF) (human) (UniProt P27352)", "sequence (P27352 19-417)": "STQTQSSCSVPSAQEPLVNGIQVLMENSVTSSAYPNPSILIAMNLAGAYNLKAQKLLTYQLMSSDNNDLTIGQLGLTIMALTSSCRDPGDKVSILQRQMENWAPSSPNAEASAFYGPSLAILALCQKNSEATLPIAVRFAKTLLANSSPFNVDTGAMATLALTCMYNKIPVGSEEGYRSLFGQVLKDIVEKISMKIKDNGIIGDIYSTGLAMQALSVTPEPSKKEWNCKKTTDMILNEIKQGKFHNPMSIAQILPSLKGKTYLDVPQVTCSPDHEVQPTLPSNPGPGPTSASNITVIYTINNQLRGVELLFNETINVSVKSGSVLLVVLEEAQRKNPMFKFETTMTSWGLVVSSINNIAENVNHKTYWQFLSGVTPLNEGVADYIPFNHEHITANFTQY", "assay": "radioligand binding"}, "[2]": {"molecular_target": "glucagon-like peptide-1 receptor (GLP-1R) (UniProt P43220)", "sequence (P43220 24-463)": "as the sequence (P43220 24-463) above"}}, "data": [{"substance": "(AzidoK12)-Ex-4 [Compound 1]", "values": [{"measurement": "function after meprin β digestion", "setting": "meprin β", "value": "No function"}, {"measurement": "% change in FRET at 100 nM", "setting": "GLP-1R", "value": "−12 ± 0.01", "unit": "%"}]}, {"substance": "B12-Ex-4 conjugate (4) (from UniProt P26349 48-87) (peptide)", "values": [{"measurement": "IF binding (constant not named)", "setting": "[1]", "value": 6.8, "unit": "nM"}]}, {"substance": "IF-B12-Ex-4 complex (IF-4) (from UniProt P27352 19-417)", "values": [{"measurement": "% change in FRET at 100 nM (AKAR3 in HEK-GLP-1R cells)", "setting": "[2]", "value": -12, "unit": "%"}]}]}
